Paper PMC8861063, “Increase water solubility of Centellaasiatica extract by indigenous bioenhancers could improve oral bioavailability and disposition kinetics of triterpenoid glycosides in beagle dogs” (Scientific Reports, 2022)

How the values were obtained:
[1] = dog, in vivo
Source text: Eight healthy 8-month-old male beagles were obtained from the Chulalongkorn University Laboratory Animal Centre (CULAC), Chulalongkorn University. […] Food was provided twice a day, and water was available ad libitum. […] The animal experiments were approved by the Institutional Animal Care and Use Committee of the CULAC, Chulalongkorn University, Bangkok, Thailand (Protocol number 2073002, Approval date: February 21, 2020). All animal procedures were complied with the ethical principles and guidelines for the use of animals (National Research Council of Thailand, 2015). All animal experiments followed the ARRIVE reporting guidelines for documenting animal experiments.
(§1) One or two capsules containing the test substance were orally administered at 8:00 AM to the dogs following the experimental plan. […] The blood samples were centrifuged at 5000g for 10 min at 4 °C to collect plasma and then stored at − 80 °C until analysis. […] The volume of urine and weight of faeces were recorded and all samples were stored at − 80 °C until analysis. All dogs were reused with a washed out period of two weeks, to allow complete excretion of bioactive triterpenoids.
All biological samples (plasma, urine, and faeces) were subjected to protein precipitation to extract the major triterpenoids from the samples. Two hundred microliters of methanol with two internal standards (glycyrrhizin and glycyrrhetinic acid) was added to 50 µL of the biological sample and mixed for 10 min. Then, the sample was centrifuged at 12,000g for 10 min at 4 °C, and 10 µL of supernatant was injected into the LC–MS/MS system. Faeces samples were homogenised by adding methanol, then the mixture was centrifuged at 1500g for 10 min at 4 °C to collect the supernatant. In the case of the concentration of the biological sample exceeded the linear calibration curve; blank matrices were used to dilute before protein precipitation. For method validation, all major components in the biological sample of dog were determined and validated according to the previous reports with little modification.
The LC–MS/MS system was set up according to a previous published method. In brief, an LCMS-8060 coupled with a triple quadrupole mass spectrometer was controlled by LabSolution software version 5.86 (Shimadzu Corp.). A Synergi Fusion-RP C18 column (Phenomenex Inc.) maintained at 40 °C was used as the stationary phase. The analysis was run using absolute methanol and 0.2% formic acid in water as the mobile phase.
To evaluate significant differences between the pre- and post-dose of the test substances to the health status of dogs, the biochemical data were compared by using Student’s t-test. PK solution software version 2.0 (Summit Research Services) was used to analyse pharmacokinetic parameters by non-compartmental analysis. Cmax and Tmax were directly determined from plasma concentration–time curves. AUC0-24 was calculated using the trapezoidal rule and extrapolated to time infinity by the equation AUC0-inf = AUC0–24 + (Clast/kel), where Clast is the last observed plasma concentration after dosing and kel is the elimination rate constant. MRT was calculated as AUMC0-inf/AUC0-inf, where AUMC0-inf is the area under the first moment concentration–time curve. Vd was equal to dose/C0, where C0 is the plasma concentration at time zero and CL was calculated as dose/AUC0-inf. […] Absolute bioavailability was calculated as (AUCp.o./DOSEp.o.)/(AUCi.v./DOSEi.v.) × 100. Relative bioavailability was calculated from (AUCCTS/DOSECTS)/(AUCECa/DOSEECa) × 100. Before performing the statistical analysis in SPSS version 22.0 (IBM Corp.), the Shapiro–Wilk test was used to determine whether the data were normally distributed. A paired Student’s t test or Wilcoxon signed-rank test was used to determine significant differences of pharmacokinetic parameters between the groups.

[2] = dog, in vivo, iv
Protocol: as §1
All biological samples (plasma, urine, and faeces) were subjected to protein precipitation to extract the major triterpenoids from the samples. […] For method validation, all major components in the biological sample of dog were determined and validated according to the previous reports with little modification. […]
(§2) To evaluate significant differences between the pre- and post-dose of the test substances to the health status of dogs, the biochemical data were compared by using Student’s t-test. […] Cmax and Tmax were directly determined from plasma concentration–time curves. AUC0-24 was calculated using the trapezoidal rule and extrapolated to time infinity by the equation AUC0-inf = AUC0–24 + (Clast/kel), where Clast is the last observed plasma concentration after dosing and kel is the elimination rate constant. […] Absolute bioavailability was calculated as (AUCp.o./DOSEp.o.)/(AUCi.v./DOSEi.v.) × 100. […]

[3] = dog, in vivo; remark: listed apart in the source
Protocol: as §1
as §2, with “constant. MRT was calculated as AUMC0-inf/AUC0-inf, where AUMC0-inf is the area under the first moment concentration–time curve. Vd was equal to dose/C0, where C0 is the plasma concentration at time zero and CL was calculated as dose/AUC0-inf.” for “constant.”, “100. Relative bioavailability was calculated from (AUCCTS/DOSECTS)/(AUCECa/DOSEECa) × 100.” for “100.”

Row | Structure (SMILES) | plasma concentration compared with madecassic acid ([1]; po) | excretion route of parent triterpenoid glycosides [2] | measured biochemical parameters (haematology, kidney, liver functions), pre-dose versus post-dose [3] | AUC0-24 of madecassoside ([1]; iv, 0.46 mg/kg) | AUC0-inf of madecassoside ([1]; iv, 0.46 mg/kg) | Half-life of madecassoside ([1]; iv, 0.46 mg/kg) | MRT of madecassoside ([1]; iv, 0.46 mg/kg) | Vd of madecassoside ([1]; iv, 0.46 mg/kg)
1 | C[C@H]1[C@H](C)CC[C@]2(C(=O)O)CC[C@]3(C)C(=CC[C@@H]4[C@@]5(C)C[C@@H](O)[C@H](O)[C@@](C)(CO)[C@@H]5CC[C@]43C)[C@H]12 [asiatic acid] | approximately tenfold higher | – | – | – | – | – | – | –
2 | C[C@H]1[C@H](C)CC[C@]2(C(=O)O[C@@H]3O[C@H](CO[C@@H]4O[C@H](CO)[C@@H](O[C@@H]5O[C@@H](C)[C@H](O)[C@@H](O)[C@H]5O)[C@H](O)[C@H]4O)[C@@H](O)[C@H](O)[C@H]3O)CC[C@]3(C)C(=CC[C@@H]4[C@@]5(C)C[C@@H](O)[C@H](O)[C@@](C)(CO)[C@@H]5[C@H](O)C[C@]43C)[C@H]12 [madecassoside] | – | excreted via urine within 24 h | no significant differences | 15,662 ± 1927 µg.h/L | 15,705 ± 1938 µg.h/L | 3.88 (0.40) h | 8.05 ± 0.99 h | 0.18 ± 0.05 L/kg
